{
  "source": "paper PMC10238386",
  "about": "“Serine ADP-ribosylation in Drosophila provides insights into the evolution of reversible ADP-ribosylation signalling” (Nature Communications, 2023)",
  "key": {"hPARP1 [1]": {"biological_target": "T1, hPARP1 (Homo sapiens, UniProt P09874, E988Q)", "T1 construct": "gene PARP1", "T1 sequence (P09874 2-1014 E988Q)": "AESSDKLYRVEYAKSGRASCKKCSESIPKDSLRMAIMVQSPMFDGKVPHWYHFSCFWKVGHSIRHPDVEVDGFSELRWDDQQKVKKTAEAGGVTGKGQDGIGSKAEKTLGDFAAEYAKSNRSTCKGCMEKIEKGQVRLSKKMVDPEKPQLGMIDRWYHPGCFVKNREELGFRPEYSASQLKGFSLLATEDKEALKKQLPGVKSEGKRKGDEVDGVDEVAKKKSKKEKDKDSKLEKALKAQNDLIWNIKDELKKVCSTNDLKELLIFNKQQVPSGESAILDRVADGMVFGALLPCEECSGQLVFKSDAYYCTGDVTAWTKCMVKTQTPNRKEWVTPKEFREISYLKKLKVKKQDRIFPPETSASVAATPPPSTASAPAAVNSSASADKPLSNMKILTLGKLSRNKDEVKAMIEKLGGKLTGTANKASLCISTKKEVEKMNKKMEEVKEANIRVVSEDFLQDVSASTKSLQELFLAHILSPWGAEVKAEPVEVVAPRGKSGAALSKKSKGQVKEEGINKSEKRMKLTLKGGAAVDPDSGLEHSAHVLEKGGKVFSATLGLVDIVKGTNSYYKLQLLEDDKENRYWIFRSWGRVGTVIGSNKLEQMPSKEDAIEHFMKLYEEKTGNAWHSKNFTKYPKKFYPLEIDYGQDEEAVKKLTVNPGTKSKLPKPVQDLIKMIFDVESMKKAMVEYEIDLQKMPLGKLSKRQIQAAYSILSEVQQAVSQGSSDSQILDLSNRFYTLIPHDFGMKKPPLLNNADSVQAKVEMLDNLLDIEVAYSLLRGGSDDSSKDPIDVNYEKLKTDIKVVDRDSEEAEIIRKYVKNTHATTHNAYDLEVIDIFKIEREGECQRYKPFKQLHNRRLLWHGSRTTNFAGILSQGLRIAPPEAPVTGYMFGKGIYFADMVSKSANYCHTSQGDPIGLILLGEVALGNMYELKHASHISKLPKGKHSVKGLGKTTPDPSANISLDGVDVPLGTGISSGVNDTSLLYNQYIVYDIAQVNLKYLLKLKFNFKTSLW", "assay": "[…] auto-mono-ADP-ribosylation, SDS-PAGE autoradiography", "format": "biochemical", "conditions": "labelled compound (32P-NAD+); 50 µM NAD+, activated DNA, 2 mM MgCl2, pH 8, room temperature; no HPF1"}, "hPARP1 [2]": {"biological_target": "T2, hPARP1 (Homo sapiens, UniProt P09874)", "T2 construct": "gene PARP1", "T2 sequence (P09874 2-1014)": "as the sequence (P09874 2-1014 E988Q) above, with Q987E counted along it", "assay": "[…] auto-ADP-ribosylation (poly-Glu), SDS-PAGE autoradiography", "format": "biochemical", "conditions": "labelled compound (32P-NAD+); 50 µM NAD+, activated DNA, 2 mM MgCl2, pH 8, room temperature; no HPF1"}},
  "data": [
    {"molecule": "NC(=O)c1ccc[n+]([C@@H]2O[C@H](COP(=O)(O)OP(=O)(O)OC[C@H]3O[C@@H](n4cnc5c(N)ncnc54)[C@H](O)[C@@H]3O)[C@@H](O)[C@H]2O)c1", "note": "[NAD^+]", "values": [
      {"measurement": "32P auto-mono-ADP-ribosylation, SDS-PAGE autoradiography", "setting": "hPARP1 [1]", "value": "we generated the mono-ADPr variants using the hPARP1 E988Q mutant"},
      {"measurement": "32P auto-ADP-ribosylation (poly-Glu), SDS-PAGE autoradiography", "setting": "hPARP1 [2]", "value": "recombinant proteins or peptides were ADP-ribosylated by hPARP1 to produce Glu-ADPr"}
    ]}
  ]
}
